Laboratory results taken from paper PMC11721672, “Design, Structure–Activity Relationships, and Computational Modeling Studies of a Series of α-Helix Biased, Ultra-Short Glucagon-like Peptide-1 Receptor Agonists” (Molecules, 2024).
Like-named read-outs stand apart in the source and are kept apart here. Square brackets hold non-standard residues; d marks the D form. Peptide text beside a SMILES is read from it. Bip = N[C@@H](Cc1ccc(-c2ccccc2)cc1)C(=O)O; αMePhe(2-F) = C[C@](N)(Cc1ccccc1F)C(=O)O; Phe(2-F) = N[C@@H](Cc1ccccc1F)C(=O)O; Aib = CC(C)(N)C(=O)O

Key:
[1] = molecular target: human GLP-1 receptor (hGLP-1R); design: method as in PMID 31031702; conditions: read-out: potency at the human GLP-1 receptor; cited from earlier work
hGLP1 receptor = molecular target: T1, hGLP1 receptor (Homo sapiens, UniProt P43220); assay: GLP-1 receptor agonism assay (HTRF cAMP, HEK cells co-expressing hGLP1 receptor and CRE-Luciferase); type: cell-based; conditions: for Emax: HEK293, Table 6 potency profile
T1 construct: expressed in transfected cells; host or cells: HEK (human embryonic kidney) cells co-expressing hGLP1 receptor and CRE-Luciferase

[2] = Table 2, Ala-scanning, 0% HSA, >1000 nM = out of range, read-out: cAMP EC50
[3] = Table 4, Ala-scan peptides, 0% HSA, read-out: pEC50 (converted)

T1 sequence (P43220 24-463): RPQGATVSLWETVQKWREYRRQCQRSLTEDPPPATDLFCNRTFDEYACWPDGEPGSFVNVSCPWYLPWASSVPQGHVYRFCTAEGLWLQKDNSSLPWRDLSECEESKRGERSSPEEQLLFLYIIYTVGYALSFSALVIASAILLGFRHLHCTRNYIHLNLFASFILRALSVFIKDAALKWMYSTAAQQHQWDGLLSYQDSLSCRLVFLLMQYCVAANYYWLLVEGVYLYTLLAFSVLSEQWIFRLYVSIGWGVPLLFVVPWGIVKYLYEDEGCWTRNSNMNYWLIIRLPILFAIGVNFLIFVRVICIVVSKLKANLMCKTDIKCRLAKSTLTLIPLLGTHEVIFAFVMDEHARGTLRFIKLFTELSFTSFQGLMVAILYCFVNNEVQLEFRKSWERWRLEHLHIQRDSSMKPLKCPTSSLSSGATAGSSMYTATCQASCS

Row | Molecule | Emax (hGLP1 receptor) [%] | EC50 (hGLP1 receptor; [2]) [nM] | EC50 (hGLP1 receptor; [3]) [nM] | further results
1 | semaglutide |  |  |  | EC50 [1]: 6.2 pM
2 | C[C@@H](O)[C@H](NC(=O)CNC(=O)[C@H](CCC(=O)O)NC(=O)C(C)(C)NC(=O)[C@@H](N)Cc1c[nH]cn1)C(=O)N[C@@](C)(Cc1ccccc1F)C(=O)N[C@H](C(=O)N[C@@H](CO)C(=O)N[C@@H](CC(=O)O)C(=O)NC(C)(C)C(=O)N[C@@H](Cc1ccc(-c2ccccc2)cc1)C(N)=O)[C@@H](C)O [RXL-3051, His-Aib-Glu-Gly-Thr-α-Me-Phe(2-F)-Thr-Ser-Asp-Aib-Bip-NH2] (H-H[Aib]EGT[αMePhe(2-F)]TSD[Aib][Bip]-NH2) | 26.8 |  |  | decreased potency by Aib substitution (hGLP1 receptor; Aib-scanning, versus parent analog RXL-101): ≥ 100 fold; dpEC50 (contribution of Cα-methylation) (hGLP1 receptor; dpEC50 = pEC50 (Aib) − pEC50 (Ala) − 0.97, Aib peptide versus the Ala peptide of the same line, 0% HSA): −1.34; decreased potency (Aib/Ala comparison) (hGLP1 receptor; versus respective parent analog): > 10,000 fold
3 | C[C@H](NC(=O)CNC(=O)[C@H](CCC(=O)O)NC(=O)C(C)(C)NC(=O)[C@@H](N)Cc1c[nH]cn1)C(=O)N[C@@H](Cc1ccccc1F)C(=O)N[C@H](C(=O)N[C@@H](CO)C(=O)N[C@@H](CC(=O)O)C(=O)N[C@@H](Cc1ccc(-c2ccccc2)cc1)C(=O)N[C@@H](Cc1ccc(-c2ccccc2)cc1)C(N)=O)[C@@H](C)O [RXL-3004, His-Aib-Glu-Gly-Ala-Phe(2-F)-Thr-Ser-Asp-Bip-Bip-NH2] (H-H[Aib]EGA[Phe(2-F)]TSD[Bip][Bip]-NH2) | 108 | 7.7 | 6.92 | 
4 | C[C@@H](O)[C@H](NC(=O)CNC(=O)[C@H](CCC(=O)O)NC(=O)C(C)(C)NC(=O)[C@@H](N)Cc1c[nH]cn1)C(=O)N[C@@H](Cc1ccccc1Br)C(=O)N[C@H](C(=O)N[C@@H](CO)C(=O)N[C@@H](CC(=O)O)C(=O)N[C@@H](Cc1ccc(-c2ccccc2)cc1)C(=O)N[C@@H](Cc1ccc(-c2ccccc2)cc1)C(N)=O)[C@@H](C)O [RXL-3010, His-Aib-Glu-Gly-Thr-Phe(2-Br)-Thr-Ser-Asp-Bip-Bip-NH2] | 121 |  |  | EC50 (hGLP1 receptor; Table 1, Phe6 modifications, 0% HSA, average of two independent experiments in triplicate (RXL-3039 tested once), read-out: cAMP EC50): 3.85 nM
5 | C[C@H](NC(=O)[C@H](CO)NC(=O)[C@@H](NC(=O)[C@H](Cc1ccccc1F)NC(=O)[C@@H](NC(=O)CNC(=O)[C@H](CCC(=O)O)NC(=O)C(C)(C)NC(=O)[C@@H](N)Cc1c[nH]cn1)[C@@H](C)O)[C@@H](C)O)C(=O)N[C@@H](Cc1ccc(-c2ccccc2)cc1)C(=O)N[C@@H](Cc1ccc(-c2ccccc2)cc1)C(N)=O [RXL-3007, His-Aib-Glu-Gly-Thr-Phe(2-F)-Thr-Ser-Ala-Bip-Bip-NH2] (H-H[Aib]EGT[Phe(2-F)]TSA[Bip][Bip]-NH2) | 132 | 14 | 4.79 | 
6 | C[C@H](NC(=O)[C@@H](NC(=O)[C@H](Cc1ccccc1F)NC(=O)[C@@H](NC(=O)CNC(=O)[C@H](CCC(=O)O)NC(=O)C(C)(C)NC(=O)[C@@H](N)Cc1c[nH]cn1)[C@@H](C)O)[C@@H](C)O)C(=O)N[C@@H](CC(=O)O)C(=O)N[C@@H](Cc1ccc(-c2ccccc2)cc1)C(=O)N[C@@H](Cc1ccc(-c2ccccc2)cc1)C(N)=O [RXL-3006, His-Aib-Glu-Gly-Thr-Phe(2-F)-Thr-Ala-Asp-Bip-Bip-NH2] (H-H[Aib]EGT[Phe(2-F)]TAD[Bip][Bip]-NH2) | 120 | 8.5 | 1.91 | 
